Data set [1] has as its system murine melanoma B16-F10 cells. As to the kind of experiment: In vitro cytotoxicity, neutral red staining after 72 hours. As to conditions: 72 hours incubation.
Experimental: (§2) For in vitro cytotoxicity experiment, murine melanoma B16-F10 cells were grown and maintained in Eagle's minimum essential medium (Nissui), which contains kanamycin (60 µg/ml), supplemented with heat-inactivated fetal calf serum (10%) and nonessential amino acids (0.6%) at 37°C under a humidified atmosphere in a 5% CO₂ incubator. Exponentially growing B16-F10 cells were harvested, counted and suspended in the culture medium at the concentration of 2.0x10⁴ cells/ml. The cell suspension (180 µl) was planted into wells of a 96-well microtiter plate and incubated for 24 hours. Test compounds (20 µl) were added to the wells and the plates were further incubated for 72 hours. The cytotoxic activity was colorimetrically determined at 540 nm after staining viable cells with neutral red solution.
For data set [2], the system named is murine melanoma B16-F10 cells.
Experimental: as §2
In data set [3] the test system is lymphocytic leukemia P388. As to the kind of experiment: In vivo antitumor activity against P388 leukemia in mice. As to conditions: for T/C % of MST: P388, female CDF1 mice, Q1Dx3 ip; for anti-P388 activity compared with elsamicin A / toxicity compared with elsamicin A: P388 system, in words. As for the experimental part:
(§1) In vivo antitumor activity of the above fifteen derivatives was tested in the lymphocytic leukemia P388 and melanoma B16 systems. Female CDF₁ (for P388) and male BDF₁ (for B16) mice were inoculated by ip injection at 10⁶ P388 cells and 0.5 ml of a 10% B16 brei per mouse, respectively (day 0). […] The percent increase of median survival time (MST) of treated animals over that of untreated control animals was determined and reported as T/C %. Compounds showing T/C % values of 125 or greater are considered to have significant antitumor activity.

The test system of data set [4] is melanoma B16. As to the kind of experiment: In vivo antitumor activity against B16 melanoma in mice. As to conditions: B16, male BDF1 mice, Q4Dx3 ip. As for the experimental part:
as §1

Molecules are shown by their SMILES.

Consider `CCCOc1c2cccc(OC3OC(C)C(O)C(C)(O)C3OC3OC(C)C(O)C(OC)C3N)c2c2oc(=O)c3c(C)ccc4oc(=O)c1c2c43` (centres unmarked) [Compound 7c, 6-O-n-Propylelsamicin A], for which, in data set [1], the “Cytotoxicity IC50” value came to 0.03 mg/L. In addition, the “cytotoxicity compared with the parent compound” value in data set [2] is “approximately equipotent cytotoxicity to the parent compound”. The “T/C % of MST” value was 105% in data set [3] (0.1 mg/kg/day); 129% in data set [3] (0.3 mg/kg/day); 133% in data set [3] (1 mg/kg/day); 152% in data set [3] (3 mg/kg/day); 152% in data set [3] (10 mg/kg/day); 155% in data set [3] (20 mg/kg/day). Further, in data set [3] (40 mg/kg/day), the “T/C % of MST” value is listed as 159%. The “anti-P388 activity compared with elsamicin A” value in data set [3] is given as “as active as elsamicin A”. Besides, in data set [3], the “toxicity compared with elsamicin A” value is “seemed to be less toxic”.
In the case of `CCCCOc1c2cccc(OC3OC(C)C(O)C(C)(O)C3OC3OC(C)C(O)C(OC)C3N)c2c2oc(=O)c3c(C)ccc4oc(=O)c1c2c43` (centres unmarked) [Compound 7e, 6-O-n-Butylelsamicin A], the “Cytotoxicity IC50” value in data set [1] came out at 0.03 mg/L. In addition, the “cytotoxicity compared with the parent compound” value in data set [2] is on record as “approximately equipotent cytotoxicity to the parent compound”. The “T/C % of MST” value was found to be 123% in data set [4] (0.3 mg/kg/day); 127% in data set [4] (1 mg/kg/day); 160% in data set [4] (3 mg/kg/day); 213% in data set [4] (10 mg/kg/day); 110% in data set [3] (0.1 mg/kg/day); 124% in data set [3] (0.3 mg/kg/day). Besides, the “T/C % of MST” value is listed as 133% in data set [3] (1 mg/kg/day); 152% in data set [3] (3 mg/kg/day); 162% in data set [3] (10 mg/kg/day); 141% in data set [3] (20 mg/kg/day); 164% in data set [3] (40 mg/kg/day). Also, the “anti-P388 activity compared with elsamicin A” value in data set [3] is “as active as elsamicin A”. Moreover, the “toxicity compared with elsamicin A” value in data set [3] is listed as “seemed to be less toxic”.
Regarding `CCOc1c2cccc(OC3OC(C)C4OC(C)(C)OC4(C)C3OC3OC(C)C(O)C(OC)C3N)c2c2oc(=O)c3c(C)ccc4oc(=O)c1c2c43` (centres unmarked) [Compound 8b, 6-O-Ethyl-3'4'-O-isopropylideneelsamicin A], the “Cytotoxicity IC50” value in data set [1] is 0.06 mg/L. The “cytotoxicity compared with the parent compound” value in data set [2] was “approximately equipotent cytotoxicity to the parent compound”. Besides, the “T/C % of MST” value in data set [4] (0.1 mg/kg/day) came to 97%; in data set [4] (0.3 mg/kg/day) it was 106%; in data set [4] (1 mg/kg/day), 119%; in data set [4] (3 mg/kg/day), 153%; in data set [4] (10 mg/kg/day) it was 216%; in data set [3] (0.1 mg/kg/day), 110%. Further, the “T/C % of MST” value in data set [3] (0.3 mg/kg/day) worked out at 125%; in data set [3] (1 mg/kg/day), 125%; in data set [3] (3 mg/kg/day) it was 140%; in data set [3] (10 mg/kg/day) it was 190%; in data set [3] (20 mg/kg/day), 200%. Moreover, in data set [3], the “anti-P388 activity compared with elsamicin A” value is listed as “as active as elsamicin A”. In data set [3], the “toxicity compared with elsamicin A” value was “seemed to be less toxic”.

The values are drawn from EP0516157A1, “Preparation of 6-0-alkylelsamicin A derivatives” (priority 1991, dated 1992).
